Source: US20240199587A1, “HETEROCYCLIC COMPOUNDS” (Hoffmann-La Roche Inc., priority 2021, published 2024)

What follows are compounds tested against T1, MAGL (Homo sapiens, UniProt Q99685) (assay: 2-AG assay (MAGL inhibitory activity, hydrolysis of 2-arachidonoylglycerol to arachidonic acid followed by mass spectrometry)). Details: 8 μM 2-arachidonoylglycerol, 15 min pre-incubation, 30 min incubation at RT, RapidFire MS readout.
T1 sequence (Q99685 1-303): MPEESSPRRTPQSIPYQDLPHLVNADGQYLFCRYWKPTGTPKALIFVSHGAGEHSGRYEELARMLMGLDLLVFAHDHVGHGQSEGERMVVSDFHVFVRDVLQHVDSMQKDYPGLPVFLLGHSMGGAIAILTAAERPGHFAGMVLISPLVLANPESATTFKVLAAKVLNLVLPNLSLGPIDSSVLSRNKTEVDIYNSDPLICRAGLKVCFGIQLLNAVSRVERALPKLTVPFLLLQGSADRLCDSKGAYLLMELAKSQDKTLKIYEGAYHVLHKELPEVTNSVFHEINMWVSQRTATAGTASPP
Format: biochemical
Summary of the method: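 Human MAGL ([…] final) pre-incubated 15 min at RT with compound in 50 mM TRIS, 1 mM EDTA, 0.01% Tween-20, 2.5% DMSO; 8 μM 2-AG then added for 30 min at RT. Acetonitrile quench with d8-arachidonic acid; arachidonic acid measured by RapidFire SPE–MS/MS, activity from arachidonic acid/d8 ratio.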
`O=C(N1CC2(CC(CNC3(C(F)(F)F)COC3)C2)C1)N1CC2(CC(n3cnc(C4CC4)n3)C2)C1` [Example 465, [6-(3-cyclopropyl-1,2,4-triazol-1-yl)-2-azaspiro[3.3]heptan-2-yl]-[6-[[[3-(trifluoromethyl)oxetan-3-yl]amino]methyl]-2-azaspiro[3.3]heptan-2-yl]methanone] showed an IC50 of 3.17 nM. Compound `CC(C)(C)c1nc(-c2ccc(C(=O)N3CC4(CC(n5cnc(Cl)c5)C4)C3)cc2)no1` [Example 159, [4-(5-tert-butyl-1,2,4-oxadiazol-3-yl)phenyl]-[6-(4-chloroimidazol-1-yl)-2-azaspiro[3.3]heptan-2-yl]methanone] has an IC50 of 315 nM. With `O=C(N1CC(c2nc(CC3(C(F)(F)F)CC3)no2)C1)N1CC2(CC(n3cnc(C4CC4)n3)C2)C1` [Example 2, [6-(3-cyclopropyl-1,2,4-triazol-1-yl)-2-azaspiro[3.3]heptan-2-yl]-[3-[3-[[1-(trifluoromethyl)cyclo-propyl]methyl]-1,2,4-oxadiazol-5-yl]azetidin-1-yl]methanone] the IC50 was 25.7 nM. In the case of `CC(C)(C)c1nc(-c2ccc(C(=O)N3CC4(CC(n5cnc(C#N)c5)C4)C3)cc2)no1` [Example 160, 1-[2-[4-(5-tert-butyl-1,2,4-oxadiazol-3-yl)benzoyl]-2-azaspiro[3.3]heptan-6-yl]imidazole-4-carbonitrile], the IC50 is reported as 1010 nM. Compound `CS(=O)(=O)c1ccc(CN2CCC3(CC2)CN(C(=O)N2CC4(CC(n5cnc(C6CC6)n5)C4)C2)C3)cc1` [Example 486, [6-(3-cyclopropyl-1,2,4-triazol-1-yl)-2-azaspiro[3.3]heptan-2-yl]-[7-[(4-methylsulfonylphenyl)methyl]-2,7-diazaspiro[3.5]nonan-2-yl]methanone] has an IC50 of 14.6 nM. For `CS(=O)(=O)c1ccc(-c2ccc(C3CN(C(=O)N4CC5(CC(c6ccc(C(F)(F)F)nc6)C5)C4)C3)cn2)c(Cl)c1` [Example 538, [3-[6-(2-chloro-4-methylsulfonyl-phenyl)-3-pyridyl]azetidin-1-yl]-[6-[6-(trifluoromethyl)-3-pyridyl]-2-azaspiro[3.3]heptan-2-yl]methanone], the IC50 was 381 nM. Work on `O=C(N1CC(c2ccc(N3CC[C@H](C(F)(F)F)C3)nc2)C1)N1CC2(CC(n3cnc(C4(O)CC4)n3)C2)C1` [Example 397, [6-[3-(1-hydroxycyclopropyl)-1,2,4-triazol-1-yl]-2-azaspiro[3.3]heptan-2-yl]-[3-[6-[(3S)-3-(trifluoromethyl)pyrrolidin-1-yl]-3-pyridyl]azetidin-1-yl]methanone] yielded an IC50 of 14.4 nM. In the case of `O=C(N1CC2(CC(Cc3ccc(F)cc3F)C2)C1)N1CC2(CC(c3ccc(F)cc3)C2)C1` [Example 343, [6-[(2,4-difluorophenyl)methyl]-2-azaspiro[3.3]heptan-2-yl]-[6-(4-fluorophenyl)-2-azaspiro[3.3]heptan-2-yl]methanone], the IC50 is reported as 491 nM. Compound `O=C(N1CC(c2ccc(N3CCC(C(F)(F)F)C3)nc2)C1)N1CC2(CC(n3cnc(C4CC4)n3)C2)C1` (stereo in doubt) [Example 480, [6-(3-cyclopropyl-1,2,4-triazol-1-yl)-2-azaspiro[3.3]heptan-2-yl]-[3-[6-[(3S)-3-(trifluoromethyl)pyrrolidin-1-yl]-3-pyridyl]azetidin-1-yl]methanone] has an IC50 of 0.49 nM. `O=C(N1CC2(CC(n3cnc(C4CC4)n3)C2)C1)N1CCC(OCC2(C(F)(F)F)CC2)C(F)(F)C1` (centres unmarked) [Example 150, [6-(3-cyclopropyl-1,2,4-triazol-1-yl)-2-azaspiro[3.3]heptan-2-yl]-[3,3-difluoro-4-[[1-(trifluoromethyl)cyclopropyl]methoxy]-1-piperidyl]methanone] showed an IC50 of 162 nM. `COc1ccc(OC2CC3(C2)CN(C(=O)N2CC4(CC(n5cnc(C6CC6)n5)C4)C2)C3)cn1` [Example 60, (6-(3-cyclopropyl-1H-1,2,4-triazol-1-yl)-2-azaspiro[3.3]heptan-2-yl)(6-((6-methoxypyridin-3-yl)oxy)-2-azaspiro[3.3]heptan-2-yl)methanone] was tested, and the IC50 was 5.3 nM. Compound `O=C(N1CC(c2ccc(OC(F)(F)F)cc2Cl)C1)N1CC2(CC(n3cnc(C4CC4)n3)C2)C1` [Example 84, [3-[2-chloro-4-(trifluoromethoxy)phenyl]azetidin-1-yl]−[6-(3-cyclopropyl-1,2,4-triazol-1-yl)-2-azaspiro[3.3]heptan-2-yl]methanone] has an IC50 of 0.6 nM. `COC(=O)C(C)(C)c1cccc(OC2CN(C(=O)N3CC4(CC(n5cnc(C6CC6)n5)C4)C3)C2)c1` [Example 200, methyl 2-[3-[1-[6-(3-cyclopropyl-1,2,4-triazol-1-yl)-2-azaspiro[3.3]heptane-2-carbonyl]azetidin-3-yl]oxyphenyl]-2-methyl-propanoate] gave an IC50 of 0.7 nM. For `Cc1cc(C(=O)N2CC3(CC(n4cnc(C5CC5)n4)C3)C2)nnc1OCC1(C(F)(F)F)CC1` [Example 32, [6-(3-cyclopropyl-1,2,4-triazol-1-yl)-2-azaspiro[3.3]heptan-2-yl]-[5-methyl-6-[[1-(trifluoromethyl)cyclo-propyl]methoxy]pyridazin-3-yl] methanone], the IC50 was 2820 nM. Compound `O=C(N1CC2(CC(Cc3ccc(Cl)cn3)C2)C1)N1CC2(CC(n3cnc(C4(O)CC4)n3)C2)C1` [Example 404, [6-[(5-chloro-2-pyridyl)methyl]-2-azaspiro[3.3]heptan-2-yl]-[6-[3-(1-hydroxycyclopropyl)-1,2,4-triazol-1-yl]-2-azaspiro[3.3]heptan-2-yl]methanone] has an IC50 of 2.33 nM. `COc1cc(C(F)(F)F)ccc1CC1CC2(C1)CN(C(=O)N1CC3(CC(n4cnc(C5CC5)n4)C3)C1)C2` [Example 40, [6-(3-cyclopropyl-1,2,4-triazol-1-yl)-2-azaspiro[3.3]heptan-2-yl]−[6-[[2-methoxy-4-(trifluoromethyl)phenyl]methyl]-2-azaspiro[3.3]heptan-2-yl]methanone] showed an IC50 of 0.03 nM. `O=C(N1CC(c2nnc(-c3ccc(F)cc3F)[nH]2)C1)N1CC2(CC(n3cnc(C4CC4)n3)C2)C1` [Example 289, [6-(3-cyclopropyl-1,2,4-triazol-1-yl)-2-azaspiro[3.3]heptan-2-yl]-[3-[5-(2,4-difluorophenyl)-4H-1,2,4-triazol-3-yl]azetidin-1-yl]methanone] showed an IC50 of 62.1 nM. `O=C(N1CC(OCc2ccc(F)cc2C(F)(F)F)C1)N1CC2(CC(n3cnc(C4CC4)n3)C2)C1` [Example 78, (6-(3-cyclopropyl-1H-1,2,4-triazol-1-yl)-2-azaspiro[3.3]heptan-2-yl)(3-((4-fluoro-2-(trifluoromethyl)benzyl)oxy)azetidin-1-yl)methanone] was tested, and the IC50 was 12.2 nM. With `O=C(N1CC(OCc2ccc(C(F)(F)F)cc2)C1)N1CC2(CC(n3cnc(C4CC4)c3)C2)C1` [Example 101, [6-(4-cyclopropylimidazol-1-yl)-2-azaspiro[3.3]heptan-2-yl]-[3-[[4-(trifluoromethyl)phenyl]methoxy]azetidin-1-yl]methanone] the IC50 was 42.1 nM. Compound `O=C(N1CC2(CC(Cc3ncc(F)cc3F)C2)C1)N1CC2(CC(n3cnc(C4CC4)n3)C2)C1` [Example 199, [6-(3-cyclopropyl-1,2,4-triazol-1-yl)-2-azaspiro[3.3]heptan-2-yl]-[6-[(3,5-difluoro-2-pyridyl)methyl]-2-azaspiro[3.3]heptan-2-yl]methanone] has an IC50 of 0.5 nM.
